Reference: ChEMBL document CHEMBL1133313, “Syntheses and antifungal activity of pseudomycin side-chain analogues. Part 1” (2000)
≈ marks a conversion by molar mass, not a printed value. Positions of bridges follow the written chain, without caps; N, C: chain ends. Non-standard residues stand in square brackets, D forms with d. Residues, ends and D or L forms follow the SMILES beside them. *: point of attachment. Tetradecanoyl(3R-OH) = CCCCCCCCCCC[C@@H](O)CC(=O)*; Asp(3S-OH) = N[C@H](C(=O)O)[C@H](O)C(=O)O; Thr(4-Cl) = N[C@H](C(=O)O)[C@H](O)CCl; aThr = C[C@H](O)[C@H](N)C(=O)O; dDab = NCC[C@@H](N)C(=O)O; Dab = NCC[C@H](N)C(=O)O; Dhb = C/C=C(\N)C(=O)O

Key:
Type in all cases: functional
[1] = test system: Candida albicans; assay: Lowest concentration required to inhibit 90-100% of the visible growth of Candida albicans when compared to controls
[2] = test system: Aspergillus fumigatus; assay: Lowest concentration required to inhibit the growth of Aspergillus fumigatus
[3] = test system: Candida albicans; assay: Lowest concentration required to inhibit 90-100% of the visible growth of Candida albicans when compared to control; Range is 0.312-0.625

C/C=C1\NC(=O)[C@H]([C@@H](C)O)NC(=O)[C@@H](CCN)NC(=O)[C@@H](CCCCN)NC(=O)[C@@H](CC(=O)O)NC(=O)[C@@H](CCN)NC(=O)[C@@H](NC(=O)CC(O)Cc2cccc(OCCCCCC)c2)COC(=O)[C@@H]([C@H](O)CCl)NC(=O)[C@H]([C@H](O)C(=O)O)NC1=O (stereo not given in full) gave an MIC [1] greater than 20 µg/mL and an MIC [2] greater than 20 µg/mL.

Molecule C/C=C1\NC(=O)[C@H]([C@H](C)O)NC(=O)[C@@H](CCN)NC(=O)[C@@H](CCCCN)NC(=O)[C@@H](CC(=O)O)NC(=O)[C@@H](CCN)NC(=O)[C@@H](NC(=O)C[C@@H](O)c2cccc(OCCCCCCCCCCC)c2)COC(=O)[C@@H]([C@H](O)CCl)NC(=O)[C@H]([C@H](O)C(=O)O)NC1=O has an MIC [1] of 10 µg/mL (≈ 7.69 µM) and an MIC [2] greater than 20 µg/mL.

C/C=C1\NC(=O)[C@H]([C@@H](C)O)NC(=O)[C@@H](CCN)NC(=O)[C@@H](CCCCN)NC(=O)[C@@H](CC(=O)O)NC(=O)[C@@H](CCN)NC(=O)[C@@H](NC(=O)CC(O)CCc2cccc(OCCCCC)c2)COC(=O)[C@@H]([C@H](O)CCl)NC(=O)[C@H]([C@H](O)C(=O)O)NC1=O (stereo not given in full) was tested, and the MIC [1] was greater than 20 µg/mL and the MIC [2] was greater than 20 µg/mL.

Work on C/C=C1\NC(=O)[C@H]([C@@H](C)O)NC(=O)[C@@H](CCN)NC(=O)[C@@H](CCCCN)NC(=O)[C@@H](CC(=O)O)NC(=O)[C@@H](CCN)NC(=O)[C@@H](NC(=O)CC(O)CCc2cccc(OCCCCCCC)c2)COC(=O)[C@@H]([C@H](O)CCl)NC(=O)[C@H]([C@H](O)C(=O)O)NC1=O (stereo not given in full) yielded an MIC [1] of 10 µg/mL (≈ 7.86 µM) and an MIC [2] greater than 20 µg/mL.

In the case of C/C=C1\NC(=O)[C@H]([C@@H](C)O)NC(=O)[C@@H](CCN)NC(=O)[C@@H](CCCCN)NC(=O)[C@@H](CC(=O)O)NC(=O)[C@@H](CCN)NC(=O)[C@@H](NC(=O)CC(O)CCc2cccc(OCCCCCCCCC)c2)COC(=O)[C@@H]([C@H](O)CCl)NC(=O)[C@H]([C@H](O)C(=O)O)NC1=O (stereo not given in full), the MIC [1] is reported as 20 µg/mL (≈ 15.4 µM) and the MIC [2] is reported as greater than 20 µg/mL.

With C/C=C1\NC(=O)[C@H]([C@H](C)O)NC(=O)[C@@H](CCN)NC(=O)[C@@H](CCCCN)NC(=O)[C@@H](CC(=O)O)NC(=O)[C@@H](CCN)NC(=O)[C@@H](NC(=O)C[C@@H](O)CCc2cccc(OCCCCC)c2)COC(=O)[C@@H]([C@H](O)CCl)NC(=O)[C@H]([C@H](O)C(=O)O)NC1=O the MIC [1] was greater than 20 µg/mL and the MIC [2] was greater than 20 µg/mL.

C/C=C1\NC(=O)[C@H]([C@H](C)O)NC(=O)[C@H](CCN)NC(=O)[C@H](CCCCN)NC(=O)[C@H](CC(=O)O)NC(=O)[C@@H](CCN)NC(=O)[C@@H](NC(=O)C[C@H](O)CCCCCCCCCCC)COC(=O)[C@H]([C@H](O)CCl)NC(=O)[C@H]([C@H](O)C(=O)O)NC1=O ({Tetradecanoyl(3R-OH)}-S[dDab]DK[Dab][aThr][Dhb][Asp(3S-OH)][Thr(4-Cl)]; ester 1-C) gave an MIC [3] of 0.625 µg/mL (≈ 0.517 µM) and an MIC [2] greater than 20 µg/mL.

C/C=C1\NC(=O)[C@H]([C@H](C)O)NC(=O)[C@@H](CCN)NC(=O)[C@@H](CCCCN)NC(=O)[C@@H](CC(=O)O)NC(=O)[C@@H](CCN)NC(=O)[C@@H](NC(=O)C[C@@H](O)c2cccc(CCCCCCCCCCCC)c2)COC(=O)[C@@H]([C@H](O)CCl)NC(=O)[C@H]([C@H](O)C(=O)O)NC1=O was tested, and the MIC [1] was 5 µg/mL (≈ 3.85 µM) and the MIC [2] was greater than 20 µg/mL.

With C/C=C1\NC(=O)[C@H]([C@H](C)O)NC(=O)[C@@H](CCN)NC(=O)[C@@H](CCCCN)NC(=O)[C@@H](CC(=O)O)NC(=O)[C@@H](CCN)NC(=O)[C@@H](NC(=O)C[C@H](O)CCc2cccc(OCCCCC)c2)COC(=O)[C@@H]([C@H](O)CCl)NC(=O)[C@H]([C@H](O)C(=O)O)NC1=O the MIC [1] was greater than 20 µg/mL and the MIC [2] was greater than 20 µg/mL.

With C/C=C1\NC(=O)[C@H]([C@H](C)O)NC(=O)[C@@H](CCN)NC(=O)[C@@H](CCCCN)NC(=O)[C@@H](CC(=O)O)NC(=O)[C@@H](CCN)NC(=O)[C@@H](NC(=O)C[C@H](O)c2cccc(CCCCCCCCCCCC)c2)COC(=O)[C@@H]([C@H](O)CCl)NC(=O)[C@H]([C@H](O)C(=O)O)NC1=O the MIC [1] was 1.25 µg/mL (≈ 0.963 µM) and the MIC [2] was 2.5 µg/mL (≈ 1.93 µM).

In the case of C/C=C1\NC(=O)[C@H]([C@@H](C)O)NC(=O)[C@@H](CCN)NC(=O)[C@@H](CCCCN)NC(=O)[C@@H](CC(=O)O)NC(=O)[C@@H](CCN)NC(=O)[C@@H](NC(=O)CC(O)Cc2cccc(OCCCCCCCCCC)c2)COC(=O)[C@@H]([C@H](O)CCl)NC(=O)[C@H]([C@H](O)C(=O)O)NC1=O (stereo not given in full), the MIC [1] is reported as 15 µg/mL (≈ 11.5 µM) and the MIC [2] is reported as greater than 20 µg/mL.

C/C=C1\NC(=O)[C@H]([C@@H](C)O)NC(=O)[C@@H](CCN)NC(=O)[C@@H](CCCCN)NC(=O)[C@@H](CC(=O)O)NC(=O)[C@@H](CCN)NC(=O)[C@@H](NC(=O)CC(O)Cc2cccc(OCCCCCCCC)c2)COC(=O)[C@@H]([C@H](O)CCl)NC(=O)[C@H]([C@H](O)C(=O)O)NC1=O (stereo not given in full) was tested, and the MIC [1] was greater than 20 µg/mL and the MIC [2] was greater than 20 µg/mL.

C/C=C1\NC(=O)[C@H]([C@@H](C)O)NC(=O)[C@@H](CCN)NC(=O)[C@@H](CCCCN)NC(=O)[C@@H](CC(=O)O)NC(=O)[C@@H](CCN)NC(=O)[C@@H](NC(=O)C[C@H](O)c2cccc(OCCCCCCCCCCC)c2)COC(=O)[C@@H]([C@H](O)CCl)NC(=O)[C@H]([C@H](O)C(=O)O)NC1=O was tested, and the MIC [1] was 0.625 µg/mL (≈ 0.481 µM) and the MIC [2] was greater than 20 µg/mL.

In the case of C/C=C1\NC(=O)[C@H]([C@@H](C)O)NC(=O)[C@@H](CCN)NC(=O)[C@@H](CCCCN)NC(=O)[C@@H](CC(=O)O)NC(=O)[C@@H](CCN)NC(=O)[C@@H](NC(=O)C[C@H](O)c2cccc(CCCCCCCC)c2)COC(=O)[C@@H]([C@H](O)CCl)NC(=O)[C@H]([C@H](O)C(=O)O)NC1=O, the MIC [1] is reported as 5 µg/mL (≈ 4.03 µM) and the MIC [2] is reported as greater than 20 µg/mL.

For C/C=C1\NC(=O)[C@H]([C@H](C)O)NC(=O)[C@@H](CCN)NC(=O)[C@@H](CCCCN)NC(=O)[C@@H](CC(=O)O)NC(=O)[C@@H](CCN)NC(=O)[C@@H](NC(=O)C[C@@H](O)c2cccc(CCCCCCCC)c2)COC(=O)[C@@H]([C@H](O)CCl)NC(=O)[C@H]([C@H](O)C(=O)O)NC1=O, the MIC [1] was greater than 20 µg/mL and the MIC [2] was greater than 20 µg/mL.
